# The source made the active and inactive calls. The rule behind the calls is not given here.
# Legend:
# Cell membrane [1] = assay: Induction of inner membrane permeability in Escherichia coli at 5 uM incubated for 1 hr by SYTOX Green-staining based flow cytometry analysis; type: subcellular
# Escherichia coli [2] = assay: Sensitization of rifampicin-induced induction of cell killing in Escherichia coli assessed as time needed for bacterial destruction at 8 ug/ml; type: functional; conditions: dose 8 µg/ml
# Staphylococcus aureus = assay: Antimicrobial activity against Staphylococcus aureus ATCC 29213 assessed as inhibition of bacterial growth incubated for 18 hrs by CLSI based method; type: functional
# Escherichia coli [3] = assay: Sensitization of colistin-induced antimicrobial activity against NDM-1 producing carbapenem-resistant Escherichia coli infected in ICR CD1 mouse model of sepsis protection model assessed as increase in mouse survival at 12.5 mg/kg, sc QD for 1 days co-treated with 40 mg/kg, sc QD colistin; type: functional; conditions: time 1 day
# Acinetobacter baumannii [4] = assay: Sensitization of linezolid-induced antimicrobial activity against Acinetobacter baumannii OXA infected in mouse skin infection model assessed as reduction in skin ulcer at 7.5 mg/kg, sc TID for 5 days co-treated with 3.1 mg/kg, sc linezolid; type: functional, organism-based; conditions: time 5.0 day
# Acinetobacter baumannii [5] = assay: Sensitization of rifampicin-induced antimicrobial activity against Acinetobacter baumannii OXA infected in mouse skin infection model assessed as reduction in skin ulcer at 7.5 mg/kg, sc TID for 5 days co-treated with 20 ug/kg, sc rifampicin; type: functional, organism-based; conditions: time 5.0 day
# Cell membrane [6] = assay: Induction of outer membrane re-arragenemnts in Escherichia coli D21f2 incubated for 4 mins by NPN uptake assay; type: subcellular
# Escherichia coli [7] = assay: Sensitization of clarithromycin-induced antimicrobial activity against Cst-resistant Escherichia coli isolates assessed as inhibition of bacterial growth at 8 ug/ml incubated for 18 hrs by CLSI based method; type: functional, organism-based; conditions: dose 8.0 µg/ml
# Escherichia coli [8] = assay: Sensitization of linezolid-induced induction of cell killing in Escherichia coli assessed as time needed for bacterial destruction at 8 ug/ml; type: functional; conditions: dose 8 µg/ml
# Cell membrane [9] = assay: Induction of cell membrane fluidity changes in Escherichia coli D21f2 by Laurdan-dye based fluorescence assay; type: subcellular
# Pseudomonas aeruginosa [10] = assay: Sensitization of colistin-induced antimicrobial activity against multidrug-resistant Pseudomonas aeruginosa infected in ICR CD1 mouse model of sepsis protection model assessed as increase in mouse survival at 25 mg/kg, sc QD for 1 days co-treated with 40 mg/kg, sc QD colistin; type: functional; conditions: time 1 day
# Lipopolysaccharide (LPS) [11] = assay: Binding affinity to LPS in Escherichia coli D21 assessed as localization in membrane regions at 1 uM using TAMRA-labeled compound by confocal fluorescence microscopy
# Escherichia coli [12] = assay: Binding affinity to inner membrane using POPE/POPG (7/3) by SPR assay
# Escherichia coli [13] = assay: Sensitization of linezolid-induced antimicrobial activity against Escherichia coli ATCC 25922 infected in ICR CD1 mouse model of sepsis protection model assessed as mouse survival at 30 mg/kg, ip q1h x 8 hrs for 1 days co-treated with 25 mg/kg, sc q4h x 8 hrs linezolid; type: functional; conditions: ATCC 25922, 24 h, time 1 day
# Escherichia coli [14] = assay: Sensitization of rifampicin-induced antimicrobial activity against Cst-resistant Escherichia coli isolates assessed as inhibition of bacterial growth at 8 ug/ml incubated for 18 hrs by CLSI based method; type: functional, organism-based; conditions: dose 8.0 µg/ml
# [15] = Drug localization in cytosol of Escherichia coli at 1 uM incubated for 4 hrs using TAMRA-labeled compound; type: ADME, subcellular
# Escherichia coli [16] = assay: Sensitization of rifampicin-induced antimicrobial activity against Escherichia coli ATCC 25922 assessed as inhibition of bacterial growth at 4 to 8 ug/ml incubated for 18 hrs by CLSI based method; type: functional; conditions: dose microg/ml 4-8
# Escherichia coli [17] = assay: Antimicrobial activity against NDM-1 producing carbapenem-resistant Escherichia coli infected in ICR CD1 mouse model of sepsis protection model assessed as increase in mouse survival at 40 mg/kg, sc QD; type: functional, organism-based
# Escherichia coli [18] = assay: Antimicrobial activity against Escherichia coli ATCC 25922 assessed as inhibition of bacterial growth incubated for 18 hrs by CLSI based method; type: functional
# Escherichia coli [19] = assay: Binding affinity to outer membrane in POPE/POPG lipid layers containing LPS by SPR assay
# Escherichia coli [20] = assay: Sensitization of rifampicin-induced antimicrobial activity against Escherichia coli ATCC 25922 infected in ICR CD1 mouse model of sepsis protection model assessed as increase in mouse survival at 30 mg/kg, ip q1h x 8 hrs for 7 days co-treated with 5 mg/kg, sc q4h x 8 hrs rifampicin; type: functional, organism-based; conditions: time 7.0 day
# Escherichia coli [21] = assay: Sensitization of linezolid-induced antimicrobial activity against Escherichia coli ATCC 25922 infected in ICR CD1 mouse neutropenic thigh infection model assessed as reduction in bacterial CFU at 150 mg/kg, ip q2h x 4 hrs co-treated with 150 mg/kg, sc q2h x 4 hrs linezolid; type: functional, organism-based
# Escherichia coli [22] = assay: Sensitization of rifampicin-induced antimicrobial activity against Escherichia coli ATCC 25922 infected in ICR CD1 mouse neutropenic thigh infection model assessed as reduction in bacterial CFU at 240 mg/kg, ip q1h x 8 hrs co-treated with 20 mg/kg, sc q4h x 8 hrs rifampicin; type: functional, organism-based
# Cell membrane [23] = assay: Induction of outer membrane re-arragenemnts in Escherichia coli ATCC 25922 incubated for 4 mins by NPN uptake assay; type: subcellular
# Cell membrane [24] = assay: Induction of inner membrane permeability in Escherichia coli assessed as cytoplasmic beta-galactosidase release at 5 uM using ONPG
# Escherichia coli [25] = assay: Sensitization of linezolid-induced antimicrobial activity against Cst-resistant Escherichia coli isolates assessed as inhibition of bacterial growth at 8 ug/ml incubated for 18 hrs by CLSI based method; type: functional, organism-based; conditions: dose 8.0 µg/ml
# Escherichia coli [26] = assay: Induction of cell lysis in Escherichia coli at 5 uM by transmission electron microscopy; type: functional, organism-based
# Lipopolysaccharide (LPS) [27] = assay: Binding affinity to Escherichia coli LPS in POPE/POPG lipid layers containing wild-type LPS by SPR assay
# Cell membrane [28] = assay: Induction of cell membrane fluidity changes in Escherichia coli ATCC 25922 by Laurdan-dye based fluorescence assay; type: subcellular
# Pseudomonas aeruginosa [29] = assay: Antimicrobial activity against multidrug-resistant Pseudomonas aeruginosa infected in ICR CD1 mouse model of sepsis protection model assessed as increase in mouse survival at 40 mg/kg, sc QD; type: functional, organism-based
# Lipopolysaccharide (LPS) [30] = assay: Binding affinity to LPS in Escherichia coli D21f1 assessed as localization in membrane regions at 1 uM using TAMRA-labeled compound by confocal fluorescence microscopy
# [31] = Drug uptake in Escherichia coli at 1 uM incubated for 4 hrs using TAMRA-labeled compound; type: ADME
# Erythrocyte = assay: Hemolytic activity in human red blood cells assessed as induction of hemoglobin release incubated for 4 hrs by microplate reader based assay; type: cell-based
# Escherichia coli [32] = assay: Antimicrobial activity against Escherichia coli ATCC 25922 assessed as reduction in cell viability at 10 to 10000 uM by propidium iodide staining based assay; type: functional, organism-based; conditions: dose microM 10-10000
# Lipopolysaccharide (LPS) [33] = assay: Binding affinity to inner core/lipid A region of LPS in Escherichia coli ATCC 25922 at 1.25 uM incubated for 10 mins by protein-retention expansion microscopy
# Cell membrane [34] = assay: Induction of outer membrane permeability in Escherichia coli assessed as periplasmic-beta-lactamase release at 5 uM using CENTA; type: subcellular
substance,measurement,setting,value
Ac-KLLKLLKKPLKLLK-NH2,Activity,Cell membrane [1],inactive
same,Time,Escherichia coli [2],8 h
same,MIC,Staphylococcus aureus,> 80 µM
same,Activity,Escherichia coli [3],75%
same,Activity,Acinetobacter baumannii [4],Active
same,Activity,Acinetobacter baumannii [5],Active
same,Activity,Cell membrane [6],inactive
same,Activity,Escherichia coli [7],Active
same,Time,Escherichia coli [8],8 h
same,Activity,Cell membrane [9],inactive
same,Activity,Pseudomonas aeruginosa [10],75%
same,Activity,Lipopolysaccharide (LPS) [11],Active
same,Activity,Escherichia coli [12],Active
same,survival at 30 mg/kg,Escherichia coli [13],90%
same,Activity,Escherichia coli [14],Active
same,Drug uptake,[15],Not Active
same,fold change (FC),Escherichia coli [16],<=212
same,Activity,Escherichia coli [17],inactive
same,MIC,Escherichia coli [18],> 80 µM
same,Activity,Escherichia coli [19],inactive
same,Activity,Escherichia coli [20],Active
same,Activity,Escherichia coli [21],Active
same,Activity,Escherichia coli [22],Active
same,Activity,Cell membrane [23],Active
same,Activity,Cell membrane [24],inactive
same,Activity,Escherichia coli [25],Active
same,Activity,Escherichia coli [26],inactive
same,Activity,Lipopolysaccharide (LPS) [27],Active
same,Activity,Cell membrane [28],Dose-dependent effect
same,Activity,Pseudomonas aeruginosa [29],inactive
same,Activity,Lipopolysaccharide (LPS) [30],Active
same,Drug uptake,[31],Active
same,HC10,Erythrocyte,> 1280 µM
same,Activity,Escherichia coli [32],inactive
same,Activity,Lipopolysaccharide (LPS) [33],Active
same,Activity,Cell membrane [34],inactive
